Four compounds from ChEMBL document CHEMBL5584219 (Bioorg Med Chem Lett, 2024) can be followed below.

In assay [1] the test system is A549. Description: cells. As to conditions: Homo sapiens, A549, 48 h.
Description: Antiproliferative activity against human A549 cells assessed as inhibition of cell growth incubated for 48 hrs in presence of evodiamine by MTT assay
Assay [2] is described as follows: Antiproliferative activity against human PC9 Gefitinib-resistant (GR) cell assessed as inhibition of cell growth incubated for 48 hrs by MTT assay. As to conditions: Gefitinib-resistant PC9, 48 h. It counts as functional, cell-based. For orientation: Formazan colour is commonly taken as a measure of viable cells.
Assay [3] concerns A549. Kind of assay: Induction of cell cycle arrest in human A549 cells assessed as accumulation of cells at G0/G1 phase at 10 uM incubated for 48 hrs in presence of 10-hydroxyl-evodiamine by flow cytometry analysis (reference value: 53.63%). The format is functional. In general terms: In flow cytometry, cells or beads pass a laser one at a time.
Assay [4] deals with PC-9. Kind of assay: Antiproliferative activity against human PC-9 cells assessed as inhibition of cell growth incubated for 48 hrs by MTT assay. It counts as functional, cell-based. As to conditions: PC-9, 48 h.
In assay [5] the test system is A549. Kind of assay: Antiproliferative activity against human A549 cells assessed as inhibition of cell growth incubated for 48 hrs by MTT assay. The format is functional, cell-based. Conditions: A549, 48 h.
Assay [6] relates to A549. Description: Induction of apoptosis in human A549 cells assessed as necrotic cells at 10 uM incubated for 48 hrs by annexin V FITC and propidium iodide based flow cytometry (reference value: 1.49 %). It counts as functional.
The nature of the next assay: cells. As to conditions: Homo sapiens, Gefitinib-resistant PC9, 48 h.
For assay [7], the system named is A549. Kind of assay: Induction of apoptosis in human A549 cells assessed as late apoptotic cells at 10 uM incubated for 48 hrs in presence of 10-hydroxyl-evodiamine by annexin V FITC and propidium iodide based flow cytometry (reference value: 0.76 %). It counts as functional.
In assay [8] the test system is A549. Description: Induction of cell cycle arrest in human A549 cells assessed as accumulation of cells at G0/G1 phase at 10 uM incubated for 48 hrs by flow cytometry analysis (reference value: 53.63%). It counts as functional.
The subject of assay [9] is A549. Kind of assay: Induction of apoptosis in human A549 cells assessed as necrotic cells at 10 uM incubated for 48 hrs in presence of 10-hydroxyl-evodiamine by annexin V FITC and propidium iodide based flow cytometry (reference value: 1.49 %). It counts as functional.
Assay [10] concerns A549. Kind of assay: Induction of apoptosis in human A549 cells assessed as viable cells at 10 uM incubated for 48 hrs in presence of 10-hydroxyl-evodiamine by annexin V FITC and propidium iodide based flow cytometry (reference value: 95.6 %). It counts as functional. Conditions: read-out: Activity.
The test system of assay [11] is A549. Description: Induction of cell cycle arrest in human A549 cells assessed as accumulation of cells at S phase at 10 uM incubated for 48 hrs in presence of 10-hydroxyl-evodiamine by flow cytometry analysis (reference value: 46.37%). The format is functional.
Assay [12] relates to A549. Kind of assay: Induction of apoptosis in human A549 cells assessed as viable cells at 10 uM incubated for 48 hrs by annexin V FITC and propidium iodide based flow cytometry (reference value: 95.6 %). As to conditions: read-out: Activity. The format is functional.
The test system of assay [13] is A549. Kind of assay: Induction of apoptosis in human A549 cells assessed as early apoptotic cells at 10 uM incubated for 48 hrs in presence of 10-hydroxyl-evodiamine by annexin V FITC and propidium iodide based flow cytometry (reference value: 2.13 %). The format is functional.
The subject of assay [14] is A549. Description: Induction of cell cycle arrest in human A549 cells assessed as accumulation of cells at S phase at 10 uM incubated for 48 hrs by flow cytometry analysis (reference value: 46.37%). The format is functional.
Assay [15] concerns A549. Description: Induction of apoptosis in human A549 cells assessed as late apoptotic cells at 10 uM incubated for 48 hrs by annexin V FITC and propidium iodide based flow cytometry (reference value: 0.76 %). The format is functional.
In assay [16] the test system is PC-9. Kind of assay: Antiproliferative activity against human PC-9 cells assessed as inhibition of cell growth incubated for 48 hrs in presence of 10-hydroxyl-evodiamine by MTT assay. It counts as functional, cell-based. Conditions: PC-9, 48 h.
In assay [17] the test system is A549. Description: Induction of apoptosis in human A549 cells assessed as early apoptotic cells at 10 uM incubated for 48 hrs by annexin V FITC and propidium iodide based flow cytometry (reference value: 2.13 %). The format is functional.
For assay [18], the system named is A549. Description: cells. Conditions: Homo sapiens, A549, 48 h. The source holds these as a separate data set.
Assay [19] deals with PC-9. Kind of assay: Antiproliferative activity against human PC-9 cells assessed as inhibition of cell growth incubated for 48 hrs in presence of evodiamine by MTT assay. The format is functional, cell-based. Conditions: PC-9, 48 h.
Assay [20] in a line: Antiproliferative activity against human PC9 Gefitinib-resistant (GR) cell assessed as inhibition of cell growth incubated for 48 hrs in presence of evodiamine by MTT assay. The format is functional, cell-based. As to conditions: Gefitinib-resistant PC9, 48 h.
Assay [21] relates to A549. Kind of assay: Induction of apoptosis in human A549 cells assessed as early apoptotic cells at 10 uM incubated for 48 hrs in presence of erlotinib by annexin V FITC and propidium iodide based flow cytometry (reference value: 2.13 %). It counts as functional.
Assay [22] relates to A549. Kind of assay: Induction of apoptosis in human A549 cells assessed as viable cells at 10 uM incubated for 48 hrs in presence of erlotinib by annexin V FITC and propidium iodide based flow cytometry (reference value: 95.6 %). It counts as functional. Conditions: read-out: Activity.
The test system of assay [23] is A549. Kind of assay: Antiproliferative activity against human A549 cells assessed as inhibition of cell growth incubated for 48 hrs in presence of erlotinib by MTT assay. As to conditions: A549, 48 h. It counts as functional, cell-based.
Assay [24] relates to A549. Description: Induction of apoptosis in human A549 cells assessed as necrotic cells at 10 uM incubated for 48 hrs in presence of erlotinib by annexin V FITC and propidium iodide based flow cytometry (reference value: 1.49 %). The format is functional.
Assay [25] can be described thus: Antiproliferative activity against human PC9 Gefitinib-resistant (GR) cell assessed as inhibition of cell growth incubated for 48 hrs in presence of erlotinib by MTT assay. The format is functional, cell-based. Conditions: Gefitinib-resistant PC9, 48 h.
For assay [26], the system named is A549. Description: Induction of cell cycle arrest in human A549 cells assessed as accumulation of cells at S phase at 10 uM incubated for 48 hrs in presence of erlotinib by flow cytometry analysis (reference value: 46.37%). It counts as functional.
Assay [27] concerns NCI-H460. Description: Antiproliferative activity against human NCI-H460 cells assessed as inhibition of cell growth incubated for 48 hrs by MTT assay. The format is functional, cell-based. Conditions: NCI-H460, 48 h.
In assay [28] the test system is PC-9. Description: Antiproliferative activity against human PC-9 cells assessed as inhibition of cell growth incubated for 48 hrs in presence of erlotinib by MTT assay. The format is functional, cell-based. As to conditions: PC-9, 48 h.
The test system of assay [29] is A549. Description: Induction of cell cycle arrest in human A549 cells assessed as accumulation of cells at G0/G1 phase at 10 uM incubated for 48 hrs in presence of erlotinib by flow cytometry analysis (reference value: 53.63%). The format is functional.
The subject of assay [30] is A549. Kind of assay: Induction of apoptosis in human A549 cells assessed as late apoptotic cells at 10 uM incubated for 48 hrs in presence of erlotinib by annexin V FITC and propidium iodide based flow cytometry (reference value: 0.76 %). It counts as functional.
In assay [31] the test system is NCI-H460. Kind of assay: Antiproliferative activity against human NCI-H460 cells assessed as inhibition of cell growth incubated for 48 hrs in presence of erlotinib by MTT assay. Conditions: NCI-H460, 48 h. The format is functional, cell-based.
The subject of assay [32] is A549. Kind of assay: Induction of apoptosis in human A549 cells assessed as downregulation of EGFR expression level at 10 uM incubated for 48 hrs by Western blot analysis. The format is functional, cell-based. A general note: In western blotting, separated proteins are transferred to a membrane and probed.
Assay [33] has as its system A549. Description: Induction of apoptosis in human A549 cells assessed as increase in p53 protein expression at 10 uM incubated for 48 hrs by Western blot analysis. It counts as functional, cell-based.
Assay [34] has as its system A549. Description: Induction of apoptosis in human A549 cells assessed as upregulation of caspase-9 protein expression at 10 uM incubated for 48 hrs by Western blot analysis. The format is functional, cell-based.
Assay [35] has as its system A549. Kind of assay: Induction of apoptosis in human A549 cells assessed as upregulation of caspase-3 protein expression at 10 uM incubated for 48 hrs by Western blot analysis. It counts as functional, cell-based.
The test system of assay [36] is A549. Description: Induction of apoptosis in human A549 cells assessed as decrease in bcl-2 protein expression at 10 uM incubated for 48 hrs by Western blot analysis. It counts as functional, cell-based.
Assay [37] has as its system A549. Description: Induction of apoptosis in human A549 cells assessed as increase in bax protein expression at 10 uM incubated for 48 hrs by Western blot analysis. It counts as functional, cell-based.

Calls of active or inactive are those of the source. The rule behind the calls is not given here.

In the case of `C#Cc1cccc(Nc2ncnc3cc(OCCOC)c(OCCOC)cc23)c1` [ERLOTINIB], the IC50 (commonly the point on the concentration scale where inhibition reaches its midpoint) in the assay with A549 [1] was determined as 9.19 µM; in [2], 6.92 µM; in the assay on PC-9 [4], 1.8 µM; in the assay with A549 [5] it was 23.5 µM; in “cells”, 3.05 µM; with PC-9 [16] it was 1.72 µM. The IC50 in the assay with A549 [18] was 7.74 µM; in the assay with PC-9 [19], 2.37 µM; in assay [20], 4.81 µM. Further, the Activity in the assay with A549 [3] was determined as 89.36%; in the assay on A549 [6], 1%; with A549 [7] it was 2.12%; in the assay on A549 [8], 61.87%; in the assay with A549 [9], 1.26%; in the assay on A549 [11], 10.64%. The Activity with A549 [13] turned out to be 34.6%; in the assay with A549 [14], 37.13%; in the assay with A549 [15], 1.21%; with A549 [17] it was 4.82%. Moreover, the viability at 10 µM in the assay on A549 [10] is 62%; in the assay with A549 [12], 93%.
As for `CN1c2ccccc2C(=O)N2CCc3c([nH]c4ccc(O)cc34)[C@H]21`, the IC50 is 10 µM in assay [2]; 10.7 µM in the assay on PC-9 [4]; 11.1 µM with A549 [5]; 7.74 µM with A549 [23]; 3.05 µM in assay [25]; 27.8 µM in the assay with NCI-H460 [27]. Besides, the IC50 in the assay on PC-9 [28] is 1.72 µM; with NCI-H460 [31], 12.8 µM. Also, the Activity was found to be 0.34% with A549 [6]; 34.6% in the assay on A549 [21]; 1.26% with A549 [24]; 10.64% in the assay on A549 [26]; 78.23% in the assay with A549 [8]; 89.36% with A549 [29]. Besides, the Activity in the assay with A549 [14] was found to be 21.77%; in the assay on A549 [15] it was 1.7%; with A549 [17], 27.8%; with A549 [30], 2.12%. In addition, the viability at 10 µM is 62% with A549 [22] and 70.2% in the assay with A549 [12].
For `COCCOc1cc2ncnc(Nc3cccc(-c4cn(CCOCCOCCOCCNC(=O)Cn5c(C)c(COC(=O)N(C)CCN(C)C(=O)Oc6ccc7[nH]c8c(c7c6)CCN6C(=O)c7ccccc7N(C)[C@H]86)c6c5C(=O)C=C(OC)C6=O)nn4)c3)c2cc1OCCOC`, the result in the assay on A549 [32], in the assay with A549 [33], in the assay on A549 [34], in the assay with A549 [35], in the assay on A549 [36] and in the assay with A549 [37] was Active. Besides, the IC50 in [2] stood at 4.14 µM; in the assay on PC-9 [4], 1.14 µM; with A549 [5], 3.79 µM; with NCI-H460 [27], 10.6 µM. Moreover, the Activity in the assay on A549 [6] was determined as 0.65%; in the assay on A549 [8] it was 62.7%; in the assay with A549 [14], 37.3%; in the assay on A549 [15], 1.07%; with A549 [17], 20.9%. The viability at 10 µM in the assay with A549 [12] is 77.4%.
For `CN1c2ccccc2C(=O)N2CCc3c([nH]c4ccccc34)[C@H]21`, the IC50 in assay [2] is 11.3 µM; in the assay on PC-9 [4], 10.2 µM; in the assay with A549 [5] it was 24.7 µM; in the assay with A549 [23], 9.19 µM; in [25], 4.81 µM; in the assay on NCI-H460 [27], 17.1 µM. Besides, the IC50 in the assay with PC-9 [28] worked out at 2.37 µM; with NCI-H460 [31], 13.4 µM.
